Results on 60 molecules are retold here after the Kinase Knowledgebase extract (Sharma et al. 2016).

The target of one test is PIK3CA (human) (UniProt P42336). Kind of test: Inhibition of PIK3CA Kinase Activity.
Test [1] has as its target MAPK14 (human) (UniProt Q16539). Nature of the test: Assessment of MAPK14 Kinase Activity. The conditions noted are these: for inhibition: concentration not given here.
For test [2] the target is unchanged. Kind of test: Inhibition of MAPK14 Kinase Activity.
The target of a further test is CDK2 (human) (UniProt P24941). Kind of test: Enzyme Assay. As to conditions: concentration not given here.

Some results are limits rather than exact numbers.

Sequence of PIK3CA (human) (P42336 whole entry, looked up): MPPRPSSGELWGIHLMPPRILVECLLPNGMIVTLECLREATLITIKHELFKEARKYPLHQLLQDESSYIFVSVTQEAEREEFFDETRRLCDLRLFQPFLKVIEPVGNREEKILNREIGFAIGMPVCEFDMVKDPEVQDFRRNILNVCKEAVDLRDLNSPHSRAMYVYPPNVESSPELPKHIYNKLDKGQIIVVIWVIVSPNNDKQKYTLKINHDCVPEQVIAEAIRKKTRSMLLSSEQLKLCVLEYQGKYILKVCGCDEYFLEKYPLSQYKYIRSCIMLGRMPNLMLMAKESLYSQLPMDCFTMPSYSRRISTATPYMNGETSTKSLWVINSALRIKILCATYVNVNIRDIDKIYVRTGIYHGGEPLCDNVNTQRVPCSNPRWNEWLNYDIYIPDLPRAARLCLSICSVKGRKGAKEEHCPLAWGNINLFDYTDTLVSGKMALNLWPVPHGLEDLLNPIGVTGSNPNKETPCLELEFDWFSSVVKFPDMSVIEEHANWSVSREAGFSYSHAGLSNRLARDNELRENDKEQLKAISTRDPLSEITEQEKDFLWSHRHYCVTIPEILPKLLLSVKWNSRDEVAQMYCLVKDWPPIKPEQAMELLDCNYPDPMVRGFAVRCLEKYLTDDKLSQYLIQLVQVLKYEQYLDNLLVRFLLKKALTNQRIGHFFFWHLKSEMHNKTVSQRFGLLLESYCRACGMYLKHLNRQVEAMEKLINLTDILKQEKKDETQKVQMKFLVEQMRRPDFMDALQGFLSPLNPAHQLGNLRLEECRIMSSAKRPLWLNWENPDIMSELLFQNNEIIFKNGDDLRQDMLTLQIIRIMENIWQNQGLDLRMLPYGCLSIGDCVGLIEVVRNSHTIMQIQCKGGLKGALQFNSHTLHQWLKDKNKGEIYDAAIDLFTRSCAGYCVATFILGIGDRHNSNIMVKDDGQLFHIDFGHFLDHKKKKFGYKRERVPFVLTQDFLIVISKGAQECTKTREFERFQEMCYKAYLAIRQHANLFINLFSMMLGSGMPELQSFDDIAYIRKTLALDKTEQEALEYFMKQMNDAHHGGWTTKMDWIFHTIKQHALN
Sequence of MAPK14 (human) (Q16539 whole entry, looked up): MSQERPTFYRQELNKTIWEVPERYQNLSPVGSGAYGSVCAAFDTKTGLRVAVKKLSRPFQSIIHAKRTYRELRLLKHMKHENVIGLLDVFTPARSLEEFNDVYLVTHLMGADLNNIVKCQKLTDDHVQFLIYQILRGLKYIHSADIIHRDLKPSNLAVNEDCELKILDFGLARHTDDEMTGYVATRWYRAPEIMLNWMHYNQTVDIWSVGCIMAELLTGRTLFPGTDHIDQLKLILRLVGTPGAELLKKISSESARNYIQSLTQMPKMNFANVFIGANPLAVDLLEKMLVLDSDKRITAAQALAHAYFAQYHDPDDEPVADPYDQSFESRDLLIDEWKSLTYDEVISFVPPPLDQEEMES

For the molecule `N[C@H]1CCC[C@@H](CC(=O)Nc2cccc(-c3nc(-c4cccc(CO)c4)cc(N4CCOCC4)n3)c2)C1`, the IC50 against PIK3CA (human) came out at 700 nM.
On the same count and under the same terms, the result for `C=CCN(/C=C1/C(=O)O[C@H](COC)[C@@]2(C)C1=C(O)C(=O)C1=C2[C@H](OC(C)=O)C[C@]2(C)C(=O)CCC12)CC=C` (stereo partly drawn) reads 0.5 nM; that for `COc1ncc2cc1NS(=O)(=O)c1cccc(c1)C(=O)NCc1cncc(c1)-c1ccnc3[nH]c-2cc13`, 100 to 1000 nM.
Same read-out and setting: with `CN(C)c1ccc2c(COC(=O)[C@@H]3CC(=O)c4coc5c4[C@@]3(C)c3ccc4c(c3C5=O)CCC4=O)cc(=O)oc2c1` the figure was 1.9 nM; with `COC[C@H]1OC(=O)c2coc3c2[C@@]1(C)C1=C(C3=O)[C@@H]2CCC(=O)[C@@]2(C)C[C@H]1C(=O)OCN(C)c1ccc([N+](=O)[O-])c2nonc12`, 0.7 nM; with `N#Cc1cccc(-c2c[nH]c3ncc(-c4cnc(N)c(S(=O)(=O)N5CCOCC5)c4)cc23)c1`, 130 nM.
Still for that read-out and setting: the result for `COc1ccc(-c2c[nH]c3ncc(-c4cncc(NS(=O)(=O)c5ccccc5)c4)cc23)cc1OC` reads 1600 nM; that for `CN(C)CCCN1CCN(c2cccc(Oc3cc(=O)[nH]c4ccccc34)c2)CC1`, 10000 nM.
Regarding `Cc1c(NC(=O)Nc2cc(C(C)(C)C)nn2-c2ccc(F)cc2F)sc(CN2CCOCC2)c1Cl`, the IC50 on MAPK14 (human) [1] is < 5000 nM.
Take `O=C1Nc2nc(Nc3ccc(O)cc3)ncc2CN1c1ccccc1Cl`: the Kd on MAPK14 (human) [1] was 32 nM.
At MAPK14 (human) [1], `OC1CCN(c2[nH]nc(-c3ccc(Cl)cc3)c2-c2ccncc2)CC1` yielded an IC50 of 110 nM.
On the same count and under the same terms, with `OC1CCCN(c2[nH]nc(-c3ccc(Cl)cc3)c2-c2ccncc2)C1` (stereo not drawn) the figure was 190 nM.
On the same count and under the same terms, the result for `Clc1ccc(-c2n[nH]c(N3CCc4ccccc4C3)c2-c2ccncc2)cc1` reads 190 nM.
Regarding `CC[C@@H](NC(=O)c1cn2ncnc(Nc3cc(NC(=O)c4cc(F)cc(N5CCOCC5)c4)ccc3C)c2c1C)OC`, the IC50 against MAPK14 (human) [1] is 2 nM.
Same read-out and setting: the result for `CON=C(c1ccccc1)c1cnn(-c2ccccc2)c1N` reads > 100000 nM.
Turning to `CC(C)Nc1ncc2cc(Oc3ccc(F)cc3F)ncc2n1`, the IC50 against MAPK14 (human) [1] and on MAPK14 (human) [2] was < 500 nM throughout.
`Cc1ccc(C(=O)NC2CC2)cc1Nc1nc(-c2ccccc2)cs1`: the IC50 against MAPK14 (human) [1] was > 100 nM.
On the same count and under the same terms, the result for `CN1CCN(c2[nH]nc(-c3ccc(Cl)cc3)c2-c2ccncc2)CC1` reads 50 nM.
Take `Cc1nc(-c2ccccc2)c(-c2ccncc2)o1`: at MAPK14 (human) [1], the IC50 came out at 5160 nM.
On the same count and under the same terms, the result for `Cc1cccc(Nc2c(C(=O)N3CC[C@@H](O)C3)sc3c2ccc(=O)n3-c2c(F)cccc2F)n1` reads 5 to 500 nM.
With `Cc1cncc2cccc(S(=O)(=O)N3CCCNC[C@@H]3C)c12`, the inhibition against MAPK14 (human) [1] is -9%.
Take `Cc1c(NC(=O)Nc2nnc(C3CCCO3)s2)sc(CN2CCOCC2)c1Cl` (stereo not drawn): on MAPK14 (human) [1], the IC50 was < 5000 nM.
On MAPK14 (human) [1], `c1ccc(-c2noc(CN3CCCCC3)c2-c2ccnc(NC3CCCCC3)n2)cc1` yielded a Ki of 2 nM.
On to `Cc1c(NC(=O)c2cc(F)cc(N3CCOCC3)c2)sc(CN2CCOCC2)c1Cl`, for which, at MAPK14 (human) [1], the concentration for half-maximal inhibition (IC50) is < 5000 nM.
On the same count and under the same terms, with `Cc1cccc(Nc2c(C(=O)N3CCC[C@@H]3CO)sc3c2ccc(=O)n3-c2c(F)cccc2F)n1` the figure was 15 to 30 nM.
The same measure, in the same setting: the result for `N=C(N)c1ccc(Cn2c(=O)[nH]c3cc(C(=O)c4ccccc4)ccc32)cc1` reads 130 nM.
Still for that read-out and setting: the result for `CN(C)C(=O)[C@@H]1CCCN1c1nccc(Oc2ccc(NC(=O)c3cc(F)cc(N4CCCCC4)c3)c3ccccc23)n1` reads 126 nM; that for `CC(C)(N)C(=O)OCCOc1cc(-c2ccccc2Cl)c2ccc(=O)n(-c3c(Cl)cccc3Cl)c2c1`, 0.12 nM; that for `CONC(=O)c1ccc(C)c(Nc2noc(-c3ccccc3)n2)c1`, < 50 nM.
Consider `Cc1c(NC(=O)Nc2cc(C(C)(C)C)nn2-c2ccc(F)cc2)sc(CN2CCOCC2)c1Cl`, for which the half-maximal inhibitory concentration (IC50) against MAPK14 (human) [1] was < 5000 nM.
The same measure, in the same setting: the result for `Clc1ccc(-c2n[nH]c(N3CCN4CCC[C@H]4C3)c2-c2ccncc2)cc1` reads 62 nM.
With `CNc1nccc(-c2cccnc2Oc2ccc(Nc3nnc(-c4ccc(F)cc4)c4ccccc34)cc2)n1`, the IC50 at MAPK14 (human) [1] was determined as 1700 nM.
Take `Fc1cc(-c2[nH]c(SCc3ccccc3)nc2-c2cccc(C(F)(F)F)c2)ccn1`: the IC50 on MAPK14 (human) [1] came out at 2950 nM.
`Cc1ncccc1-c1nnc2c(F)c(-c3cc(C(=O)NC4CC4)cc(F)c3C)c(F)cn12` showed an IC50 against MAPK14 (human) [1] of 81 nM.
The same measure, in the same setting: with `CC(C)Nc1ncc2c(n1)N(CC(=O)O)C(=O)N(c1ccccc1Cl)C2` the figure was < 10000 nM.
Still for that read-out and setting: with `Clc1ccc(-c2n[nH]c(N3CCCC4CCCCC43)c2-c2ccncc2)cc1` (stereo not drawn) the figure was 40 nM.
Still for that read-out and setting: with `CONC(=O)c1ccc(C)c(Nc2nnc(-c3ccccc3)[nH]2)c1` the figure was < 50 nM; with `O=C(Nc1ccc(OCCN2CCOCC2)c2ccccc12)c1cccc(-c2cccc(F)c2)c1`, 1000 nM.
Regarding `O=S(=O)(c1cccc2cnccc12)N1CCCNCC1`, the inhibition against MAPK14 (human) [1] was -8%; at CDK2 (human), 18%.
For the molecule `CC1CCN(c2[nH]nc(-c3ccc(Cl)cc3)c2-c2ccncc2)CC1`, the IC50 at MAPK14 (human) [1] was determined as 130 nM.
With `O=C(Nc1ccc(OCCN2CCOCC2)c2ccccc12)c1cccc(C=Cc2ccccc2)c1`, the IC50 at MAPK14 (human) [1] was > 10000 nM.
At MAPK14 (human) [1], `CCc1nc(-c2ccc(OC)cc2)[nH]c1-c1ccncc1` yielded an IC50 of 8200 nM.
On the same count and under the same terms, with `Cc1ccc(C(=O)NC2CC2)cc1Nc1nc(-c2ccc3[nH]ccc3c2)c(C(=O)NCc2ccccc2)s1` the figure was > 100 nM.
Still for that read-out and setting: with `CN(CCO)c1nccc(Oc2ccc(NC(=O)c3cc(F)cc(N4CCOCC4)c3)c3ccccc23)n1` the figure was 18.7 nM; with `Cc1nc(Nc2c(C(=O)N3CC[C@@H](O)C3)sc3c2ccc(=O)n3-c2c(F)cccc2F)ccc1F`, 5 to 500 nM.
Consider `CCn1c(-c2nonc2N)nc2cnc(Oc3cccc(NC(=O)c4ccc(OCCN5CCOCC5)cc4)c3)cc21`, for which the inhibition at MAPK14 (human) [1] is -8%.
On to `CS(=O)(=O)N1CCC(Nc2ncc3cc(Oc4ccc(F)cc4F)ncc3n2)CC1`, for which the IC50 on MAPK14 (human) [1] and against MAPK14 (human) [2] was < 50 nM in each case.
For the molecule `CSc1nc(-c2ccc(F)cc2)c(-c2ccnc(N(C)Cc3ccccc3)c2)[nH]1`, the IC50 at MAPK14 (human) [1] was found to be 870 nM.
For `COCCN1C(=O)N(c2ccccc2Cl)Cc2cnc(NC(C)C)nc21`, at MAPK14 (human) [1], the IC50 was < 10000 nM.
Still for that read-out and setting: with `Cc1cccc(-c2nc(Nc3cc(C(=O)NC4CC4)ccc3C)sc2C(=O)NCc2ccccc2)c1` the figure was 50 to 100 nM.
With `CC1=C(C(=O)Nc2cc3cn[nH]c3cc2F)C(c2ccc(C(F)(F)F)cc2)CC(=O)N1` (stereo not drawn), the inhibition against MAPK14 (human) [1] is -3%.
In turn, `Clc1ccc(-c2n[nH]c(N3CCC4CCCCC4C3)c2-c2ccncc2)cc1` (stereo not drawn) yielded an IC50 against MAPK14 (human) [1] of 260 nM.
Still for that read-out and setting: with `CC(C)Oc1n[nH]c2nc(Oc3ccc(F)cc3F)ncc12` the figure was 165 nM; with `Cc1cccc(Nc2c(C(=O)N3CCC[C@H]3CO)sc3c2ccc(=O)n3-c2c(F)cccc2F)n1`, 5 to 500 nM.
Same read-out and setting: the result for `CC(Oc1nncc2cc(Nc3ccc(F)cc3F)ccc12)C(F)(F)F` (stereo not drawn) reads 3.1 nM; that for `Cc1ccc(C(=O)NC2CC2)cc1Nc1nc(-c2cccc(C#N)c2)c(C(=O)NCc2ccccc2)s1`, 50 to 100 nM.
Turning to `CC[C@@H](NC(=O)c1cn2ncnc(Nc3cc(NC(=O)c4cccc(N5CCOCC5)c4)ccc3C)c2c1C)OC`, the IC50 at MAPK14 (human) [1] turned out to be 12 nM.
As for `C[C@@H](N)[C@H]1CC[C@H](C(=O)Nc2ccncc2)CC1`, the inhibition against MAPK14 (human) [1] was -3%.
At MAPK14 (human) [1], `[O-][n+]1ccc2c(-c3ccc(F)cc3F)cc(N3CCNCC3)nc2c1-c1c(F)cccc1F` had an IC50 of 0.63 nM.
Same read-out and setting: the result for `CSc1nc(-c2ccc(F)cc2)c(-c2ccnc(NC3CCc4ccccc43)c2)[nH]1` (stereo not drawn) reads 30 nM.

The term IC50 denotes the concentration at which inhibition is half-maximal. One may read the Kd as the equilibrium constant for the complex coming apart. A low value points to higher affinity. Usually inhibition stands for the relative decrease from the control value, in per cent. One may read the Ki as the dissociation constant of the complex between target and ligand, obtained from inhibition or displacement. Low values mean tighter binding, high ones weaker binding.
